Values quoted from earlier work in US20260014261A1, “TARGETED PROTEIN MODIFICATION” (Weatherwax Biotechnologies Corporation, priority 2022, published 2026).

Target: p53 (Homo sapiens, UniProt P04637)
Settings: read-out: binding affinity (Kd) for p53

Chain of p53 (P04637 whole entry): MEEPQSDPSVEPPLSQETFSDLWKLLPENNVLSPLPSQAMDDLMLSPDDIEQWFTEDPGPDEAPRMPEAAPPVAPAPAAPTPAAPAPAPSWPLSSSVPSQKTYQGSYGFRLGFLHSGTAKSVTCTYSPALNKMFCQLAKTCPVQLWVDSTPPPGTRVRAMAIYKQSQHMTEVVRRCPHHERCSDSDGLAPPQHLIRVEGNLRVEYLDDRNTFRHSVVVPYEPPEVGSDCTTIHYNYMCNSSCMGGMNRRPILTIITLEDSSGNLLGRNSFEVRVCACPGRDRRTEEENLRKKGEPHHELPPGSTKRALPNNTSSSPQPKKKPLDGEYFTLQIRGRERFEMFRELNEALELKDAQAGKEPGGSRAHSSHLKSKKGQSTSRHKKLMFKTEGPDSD

In the case of `CN(C)CCCNc1nc(CN2CCN(C(c3ccc(Cl)cc3)c3ccc(Cl)cc3)CC2)nc2ccccc12` [SCH 529074], the Kd is given as ~1000 nM.
